The values below come from patent US8716326B2, “Isoindolinone derivatives, preparation method thereof and a pharmaceutical composition comprising same” (Korea Research Institute of Chemical Technology, priority 2009, dated 2014).

For this assay, the system named is Runx2. Put plainly: Runx2 activity, 6xOSE2-Luc luciferase reporter in transfected C2C12 cells. The class given is cell-based, Mouse. Particulars: 24 hrs; for fold induction at 2.5 µM / fold induction at 5 µM / fold induction at 10 µM / fold induction at 20 µM: Mus musculus, read-out: luciferase activity relative to control set as 1. Put shortly:
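C2C12 mouse premyoblasts carrying the 6xOSE2-Luc reporter (six tandem Runx2-binding OSE2 sites in pGL3) switched to 5% FBS DMEM after 24 h and treated with compound at 2.5, 5.0, 10 or 20 μM. After 24 h, lysate luciferase measured by dual-luciferase assay, expressed relative to DMSO vehicle set as 1.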

Turning to `Nc1ccccc1NC(=O)c1ccc(CN2Cc3cc(-c4ccc5c(c4)OCO5)ccc3C2=O)cc1` [Example 66, N-(2-aminophenyl)-4-((5-(benzo[d][1,3]dioxol-6-yl)-1-oxoisoindolin-2-yl)methyl)benzamide], the fold induction at 2.5 µM (2.5 μM) turned out to be 14.2. Also, the fold induction at 5 µM (5.0 μM) is 9.4. The fold induction at 10 µM (10 μM) came to 7.2. The fold induction at 20 µM (20 μM) worked out at 7.2.

Turning to `Nc1ccccc1NC(=O)c1ccc(CN2Cc3cc(-c4ccc5ccccc5c4)ccc3C2=O)cc1` [Example 67, N-(2-aminophenyl)-4-((5-(naphthalen-2-yl)-1-oxoisoindolin-2-yl)methyl)benzamide], the fold induction at 2.5 µM (2.5 μM) was 1.4. Also, where the note is “5.0 μM”, the fold induction at 5 µM came to 2. Moreover, the fold induction at 10 µM (10 μM) is 2.9. The fold induction at 20 µM (20 μM) was determined as 6.1.

`Cc1c(Br)cccc1C(=O)NCc1ccc(C(=O)Nc2ccccc2N)cc1` [Example 68, N-(2-aminophenyl)-4-((3-bromo-2-methylbenzamido)methyl)benzamide]: the fold induction at 2.5 µM (2.5 μM) is 9. The fold induction at 5 µM (5.0 μM) came out at 10.1. The fold induction at 10 µM (10 μM) is 12.8. For the same compound, under “20 μM”, the fold induction at 20 µM was found to be 15.6.

For `Cc1c(C(=O)NCc2ccc(C(=O)Nc3ccccc3N)cc2)cccc1-c1ccccc1` [Example 69, N-(2-aminophenyl)-4-((2-methyl-3-phenyl-benzamido)methyl)benzamide], the fold induction at 2.5 µM (2.5 μM) was 13.5. For the same compound, the fold induction at 5 µM (5.0 μM) was 22. Moreover, the fold induction at 10 µM (10 μM) was determined as 29.2. Under “20 μM”, the fold induction at 20 µM is 30.6.

`Cc1c(C(=O)NCc2ccc(C(=O)Nc3ccccc3N)cc2)cccc1-c1cncnc1` [Example 70, N-(2-aminophenyl)-4-((2-methyl-3-(5-pyrimidinyl)benzamido)methyl)benzamide]: where the note is “2.5 μM”, the fold induction at 2.5 µM was determined as 8.9. Also, for the setting “5.0 μM”, the fold induction at 5 µM amounted to 20.6. Besides, the fold induction at 10 µM (10 μM) is 30.1. In addition, where the note is “20 μM”, the fold induction at 20 µM turned out to be 40.2.

Regarding `Cc1c(C(=O)NCc2ccc(C(=O)Nc3ccccc3N)cc2)cccc1-c1cccnc1` [Example 71, N-(2-aminophenyl)-4-((2-methyl-3-(3-pyridinyl)benzamido)methyl)benzamide], under “2.5 μM”, the fold induction at 2.5 µM was 18.7. Further, the fold induction at 5 µM (5.0 μM) was found to be 34.8. The fold induction at 10 µM (10 μM) was 36.5. Moreover, the fold induction at 20 µM (20 μM) is 32.7.

Consider `Cc1c(C(=O)NCc2ccc(C(=O)Nc3ccccc3N)cc2)cccc1-c1cccc(N)c1` [Example 72, N-(2-aminophenyl)-4-((2-methyl-3-(3-aminophenyl)benzmido)methyl)benzamide], for which the “luciferase activity relative to control set as 1” value is recorded as 17.6 fold (2.5 μM), 29.8 fold (5.0 μM), 29.6 fold (10 μM) and 31.4 fold (20 μM).

In the case of `COc1cc(C(=O)NCc2ccc(C(=O)Nc3ccccc3N)cc2)c(C)c(Br)c1OC` [Example 73, N-(2-aminophenyl)-4-((3-bromo-4,5-dimethoxy-2-methylbenzamido)methyl)benzamide], the fold induction at 2.5 µM (2.5 μM) was determined as 24.2. Moreover, the fold induction at 5 µM (5.0 μM) is 32.3. Where the note is “10 μM”, the fold induction at 10 µM stood at 30.8. In addition, under “20 μM”, the fold induction at 20 µM was determined as 25.9.

`COc1cc(C(=O)NCc2ccc(C(=O)Nc3ccccc3N)cc2)c(C)c(-c2ccccc2)c1OC` [Example 74, N-(2-aminophenyl)-4-((2-methyl-3-phenyl-4,5-dimethoxy-benzamido)methyl)benzamide]: the fold induction at 2.5 µM (2.5 μM) is 25.1. Further, the fold induction at 5 µM (5.0 μM) was 31.1. Also, the fold induction at 10 µM (10 μM) stood at 38.5. For the same compound, the fold induction at 20 µM (20 μM) is 38.9.

In the case of `COc1cc(C(=O)NCc2ccc(C(=O)Nc3ccccc3N)cc2)c(C)c(-c2cncnc2)c1OC` [Example 75, N-(2-aminophenyl)-4-((2-methyl-4,5-dimethoxy-3-(5-pyrimidinyl)-benzamido)methyl)benzamide], the fold induction at 2.5 µM (2.5 μM) turned out to be 2.5. Moreover, the fold induction at 5 µM (5.0 μM) stood at 4.7. The fold induction at 10 µM (10 μM) was determined as 12.4. Moreover, the fold induction at 20 µM (20 μM) amounted to 27.8.

Turning to `COc1cc(C(=O)NCc2ccc(C(=O)Nc3ccccc3N)cc2)c(C)c(-c2cccnc2)c1OC` [Example 76, N-(2-aminophenyl)-4-((2-methyl-3-(3-pyridinyl)-4,5-dimethoxy-benzamido)methyl)benzamide], the fold induction at 2.5 µM (2.5 μM) amounted to 4.5. Further, the fold induction at 5 µM (5.0 μM) was 8.5. Further, the fold induction at 10 µM (10 μM) was 20.8. For the same compound, the fold induction at 20 µM (20 μM) turned out to be 32.9.

Regarding `COc1cc(C(=O)NCc2ccc(C(=O)Nc3ccccc3N)cc2)c(C)c(-c2cccc(N)c2)c1OC` [Example 77, N-(2-aminophenyl)-4-((3-(3-aminophenyl)-4,5-dimethoxy-2-methyl-benzamido)methyl)benzamide], the fold induction at 2.5 µM (2.5 μM) came out at 4.9. In addition, under “5.0 μM”, the fold induction at 5 µM worked out at 11. Further, the fold induction at 10 µM (10 μM) amounted to 24.5. Besides, the fold induction at 20 µM (20 μM) amounted to 33.5.

`COc1cc(C(=O)NCc2ccc(C(=O)Nc3ccccc3N)cc2)c(C)c(-c2ccc(C(F)(F)F)cc2)c1OC` [Example 78, N-(2-aminophenyl)-4-((2-methyl-3-(4-trifluoromethylphenyl)-4,5-dimethoxy-benzamido)methyl)benzamide]: the fold induction at 2.5 µM (2.5 μM) was determined as 6.4. Moreover, the fold induction at 5 µM (5.0 μM) stood at 12.8. For the same compound, the fold induction at 10 µM (10 μM) came to 19.1. In addition, the fold induction at 20 µM (20 μM) amounted to 21.1.

Take `COc1cc(C(=O)NCc2ccc(C(=O)Nc3ccccc3N)cc2)c(C)c(-c2cc(F)cc(F)c2)c1OC` [Example 79, N-(2-aminophenyl)-4-((2-methyl-3-(3,5-difluorophenyl)-4,5-dimethoxy-benzamido)methyl)benzamide]: the fold induction at 2.5 µM (2.5 μM) stood at 13.5. Besides, the fold induction at 5 µM (5.0 μM) was determined as 24.4. For the same compound, the fold induction at 10 µM (10 μM) worked out at 31.3. Under “20 μM”, the fold induction at 20 µM is 31.7.

Consider `Cc1c(Br)cccc1C(=O)NCCCCCC(=O)Nc1ccccc1N` [Example 80, N-(5-(2-aminophenylcarbamoyl)pentyl)-3-bromo-2-methylbenzamide], for which, for the setting “2.5 μM”, the fold induction at 2.5 µM turned out to be 0.9. Moreover, the fold induction at 5 µM (5.0 μM) was 1.8. For the same compound, for the setting “10 μM”, the fold induction at 10 µM is 2.7. Moreover, the fold induction at 20 µM (20 μM) came to 5.4.

With `Cc1c(C(=O)NCCCCCC(=O)Nc2ccccc2N)cccc1-c1ccccc1` [Example 81, N-(5-(2-aminophenylcarbamoyl)pentyl)-2-methyl-3-phenyl-benzamide], the fold induction at 2.5 µM (2.5 μM) turned out to be 1.6. Also, the fold induction at 5 µM (5.0 μM) was found to be 3.4. The fold induction at 10 µM (10 μM) stood at 7.5. Also, the fold induction at 20 µM (20 μM) turned out to be 10.7.

With `COc1ccc(-c2cccc(C(=O)NCCCCCC(=O)Nc3ccccc3N)c2C)c(OC)c1` [Example 82, N-(5-(2-aminophenylcarbamoyl)pentyl)-2-methyl-3-(2,4-dimethoxyphenyl)-benzamide], the fold induction at 2.5 µM (2.5 μM) turned out to be 1.5. For the same compound, the fold induction at 5 µM (5.0 μM) amounted to 2.5. Also, the fold induction at 10 µM (10 μM) worked out at 6. For the same compound, the fold induction at 20 µM (20 μM) stood at 10.9.

As to `Cc1c(C(=O)NCCCCCC(=O)Nc2ccccc2N)cccc1-c1cccnc1` [Example 83, N-(5-(2-aminophenylcarbamoyl)pentyl)-2-methyl-3-(3-pyridinyl)-benzamide], for the setting “2.5 μM”, the fold induction at 2.5 µM is 1.3. Besides, the fold induction at 5 µM (5.0 μM) came out at 2.1. For the setting “10 μM”, the fold induction at 10 µM amounted to 5.6. The fold induction at 20 µM (20 μM) worked out at 15.7.

As to `Cc1c(C(=O)NCCCCCC(=O)Nc2ccccc2N)cccc1-c1ccncc1` [Example 84, N-(5-(2-aminophenylcarbamoyl)pentyl)-2-methyl-3-(4-pyridinyl)-benzamide], the fold induction at 2.5 µM (2.5 μM) worked out at 1.9. Moreover, the fold induction at 5 µM (5.0 μM) came out at 3.3. The fold induction at 10 µM (10 μM) amounted to 7.8. Under “20 μM”, the fold induction at 20 µM is 17.3.

`Cc1cc(C(=O)NCCCCCC(=O)Nc2ccccc2N)ccc1Br` [Example 85, N-(5-(2-aminophenylcarbamoyl)pentyl)-4-bromo-3-methylbenzamide]: the fold induction at 2.5 µM (2.5 μM) is 2.15. For the same compound, the fold induction at 5 µM (5.0 μM) was 6.7. Also, the fold induction at 10 µM (10 μM) came out at 13.9. For the same compound, the fold induction at 20 µM (20 μM) worked out at 14.3.

Take `Cc1cc(C(=O)NCCCCCC(=O)Nc2ccccc2N)ccc1-c1ccccc1` [Example 86, N-(5-(2-aminophenylcarbamoyl)pentyl)-3-methyl-4-phenyl-benzamide]: the fold induction at 2.5 µM (2.5 μM) came to 1.2. The fold induction at 5 µM (5.0 μM) was 1.9. Also, for the setting “10 μM”, the fold induction at 10 µM was 3.4. Besides, the fold induction at 20 µM (20 μM) amounted to 3.7.

Turning to `COc1ccc(-c2ccc(C(=O)NCCCCCC(=O)Nc3ccccc3N)cc2C)c(OC)c1` [Example 87, N-(5-(2-aminophenylcarbamoyl)pentyl)-3-methyl-4-(2,4-dimethoxyphenyl)-benzamide], under “2.5 μM”, the fold induction at 2.5 µM amounted to 1.7. For the same compound, the fold induction at 5 µM (5.0 μM) was found to be 2.6. For the same compound, the fold induction at 10 µM (10 μM) is 5.6. Also, under “20 μM”, the fold induction at 20 µM was determined as 8.5.

On to `Cc1cc(C(=O)NCCCCCC(=O)Nc2ccccc2N)ccc1-c1cccnc1` [Example 88, N-(5-(2-aminophenylcarbamoyl)pentyl)-3-methyl-4-(3-pyridinyl)-benzamide], for which the fold induction at 2.5 µM (2.5 μM) stood at 6. Further, the fold induction at 5 µM (5.0 μM) stood at 16.8. For the same compound, the fold induction at 10 µM (10 μM) turned out to be 28.1. Moreover, the fold induction at 20 µM (20 μM) turned out to be 41.2.

Turning to `Cc1cc(C(=O)NCCCCCC(=O)Nc2ccccc2N)ccc1-c1ccncc1` [Example 89, N-(5-(2-aminophenylcarbamoyl)pentyl)-3-methyl-4-(4-pyridinyl)-benzamide], the fold induction at 2.5 µM (2.5 μM) is 9.6. In addition, the fold induction at 5 µM (5.0 μM) is 17.9. The fold induction at 10 µM (10 μM) was 23.7. Further, where the note is “20 μM”, the fold induction at 20 µM turned out to be 25.3.
